The text below walks through data of PubChem BioAssay AID652252 (Sanford-Burnham Center for Chemical Genomics, 2013).

Calls of active or inactive are those of the source. The rule behind the calls is not given here.

The test system of the experiment is HT1080 cells viability, ATPLite luminescence, overnight. The experiment in a line: viability of HT1080 fibrosarcoma cells – cell-based, ATPLite luminescence, set 1, cytotoxicity control for MT1-MMP activation inhibitor project, dose response (AID 652252). For orientation: In ATP-based viability assays light output follows the ATP content of the culture.
Broadly, the IC50 is the concentration needed to halve the response being measured. Consider `CCn1c(=O)c(=O)[nH]c2cc(C(=O)NC3CCCc4ccccc43)ccc21` (configuration not stated), for which the IC50 is > 80 µM (inactive).

In the case of `CN1C2=CC=CC=CC2=[N+](C)C12C=CC(=[N+]([O-])[O-])C=C2[N+](=O)[O-]` (configuration not stated), the IC50 is > 80 µM (inactive).

With `Nc1nc(-c2ccccc2)c(N=Nc2cccc3ccccc23)s1`, the IC50 is > 80 µM (inactive).

`O=Nc1c(-c2c(O)[nH]c3cc(Br)ccc23)[nH]c2ccccc12`: the IC50 is 66.1 µM (inactive).

For `CCOC(=O)C1=C(C)N=c2s/c(=C\c3ccc(OC(C)=O)c(OCC)c3)c(=O)n2C1/C=C/c1ccccc1` (configuration not stated), the 50% inhibitory concentration (IC50) is 3.54 µM.

As for `CCOc1ccc2nc(N=Nc3c(O)[nH]c(=S)[nH]c3=O)sc2c1`, the IC50 was 38.1 µM (inactive).

`COc1ccc(-c2oc3ccc(-c4ccc(OC)nc4)cc3c2C#CC2(O)CCCCC2)cc1`: the IC50 was > 80 µM (inactive).

For `O=C1c2cccc(NCCCNCCO)c2C(=O)c2cccc(NCCCNCCO)c21`, the IC50 was > 80 µM (inactive).

In the case of `CCCN1C(=O)/C(=C2/C=Cc3ccccc3N2CC)SC1=S`, the IC50 was 64.9 µM (inactive).

On to `COc1ccc(C)cc1N=Nc1ccc(O)c2ncccc12`, for which the IC50 was > 80 µM (inactive).

For `CN=C1C=C/C(=N/N=c2\ccn(O)cc2C)C=C1C`, the IC50 is > 80 µM (inactive).

On to `O=C(NNc1c2ccccc2nc2ccccc12)c1ccc(Cl)cc1`, for which the IC50 was > 40 µM (inactive).

For `CCN(CC)c1ccc(/C=C2\C(=O)N(c3nnc(C)c(=O)[nH]3)N=C2C)cc1`, the IC50 was > 80 µM (inactive).

On to `Cc1cc(N(CCO)CCO)ccc1N=Nc1cc(F)ccc1F`, for which the IC50 is > 80 µM (inactive).

`CC[n+]1c(/C=C/N(C)c2ccccc2)sc2ccc(Cl)cc21`: the IC50 is > 80 µM (inactive).

Turning to `CNc1ccccc1C(C)(C)c1cc(-c2cccc(OC)c2)no1`, the IC50 is > 80 µM (inactive).

Take `Cc1ccccc1C1=C/C(=C(\SS/C(C(=O)c2ccc(OCC(=O)O)c(Cl)c2Cl)=C2\C=C(c3ccccc3C)SS2)C(=O)c2ccc(OCC(=O)O)c(Cl)c2Cl)SS1`: the IC50 was 51.8 µM (inactive).

Take `Nc1ccc(NC(=O)c2ccccc2)c2c1C(=O)c1ccccc1C2=O`: the IC50 is > 80 µM (inactive).

For the molecule `CNc1c(C(=O)O)ccc2c1C(=O)c1ccccc1C2=O`, the IC50 was > 80 µM (inactive).

`CN(C)c1ccc(C=c2c3ccccc3n3c2c2c([n+]3C)CCCC2)cc1`: the IC50 was > 80 µM (inactive).

Turning to `COc1ccc(C)cc1Nc1nc(-c2c(C)[nH]c3ccccc23)cs1`, the IC50 is > 80 µM (inactive).

Regarding `COc1ccccc1C(=O)NC(=S)/C=C1/N(C)c2ccccc2C1(C)C`, the IC50 was > 80 µM (inactive).

Turning to `O=C1c2ccccc2C(=O)c2c(O)c(O)cc(O)c21`, the IC50 was > 80 µM (inactive).

As to `N#CC(C#N)=NNc1ccc([N+](=O)[O-])cc1`, the IC50 was > 80 µM (inactive).

As to `Cc1ccc(S(=O)(=O)/N=C2\C=C(NS(=O)(=O)c3ccccc3)C(=O)c3ccccc32)c(C)c1`, the IC50 is > 80 µM (inactive).

Regarding `CCCN1/C(=C2/SC(=S)N(CC)C2=O)C=Cc2ccccc21`, the IC50 was > 80 µM (inactive).

As for `CC1(C)CCCN(C(=O)c2ccc3c(c2NCCO)C(=O)c2ccccc2C3=O)C1`, the IC50 was > 80 µM (inactive).

`COc1cc(N(C)C)ccc1C=c1c2ccccc2n2c1cc(-c1ccccc1)[n+]2C`: the IC50 is 1.43 µM.

Take `CNc1ccccc1C(C)(C)c1cc(-c2cccc(Br)c2)no1`: the IC50 was > 80 µM (inactive).

With `CC1=NN(c2ccccc2)C(=O)/C1=C/C=C/C=C/N(C)C`, the IC50 is 10.2 µM.

As for `C[N+]1=C(/C=C/Nc2ccccc2)C(C)(C)c2ccccc21`, the half-inhibitory concentration (IC50) is 16.9 µM.

On to `O=S(=O)(O)c1cc(Cl)cc(N=Nc2ccc(O)cc2O)c1O`, for which the IC50 was 1.42 µM.

In the case of `CC1=C/C(=C(/c2cc(C)c(O)c(Br)c2)c2ccccc2S(=O)(=O)O)C=C(Br)C1=O`, the IC50 was > 80 µM (inactive).

For `CCN(CC)c1ccc(C(=C2C=CC(=[N+](CC)CC)C=C2)c2ccc(N(CC)CC)cc2)cc1`, the IC50 was > 80 µM (inactive).

Take `CNc1ccc2nc3ccccc3[n+](C)c2c1`: the IC50 was 11.4 µM.

As for `CN1C(=O)/C(=C\c2cc(N=Nc3ccccc3)ccc2O)SC1=S`, the IC50 was > 80 µM (inactive).

Take `CN1C(=O)/C(=C2/C=Cc3ccccc3N2CCCS(=O)(=O)O)SC1=S`: the IC50 was > 80 µM (inactive).

Take `CC1CC(C)CN(C(=O)c2ccc3c(c2NCCO)C(=O)c2ccccc2C3=O)C1` (configuration not stated): the IC50 is > 80 µM (inactive).

Turning to `CC1=NN(c2ccccc2)C(=O)C1N=Nc1ccc(N)cc1` (configuration not stated), the IC50 was > 80 µM (inactive).

As for `Cc1c(C(=O)OCC(=O)NCC2CCCO2)oc2ccccc12` (configuration not stated), the IC50 is > 40 µM (inactive).

Take `Cc1cccc[n+]1CC(=O)/C=C1\N(C)c2ccccc2C1(C)C`: the IC50 is 70.6 µM (inactive).

Turning to `CC(=O)Oc1ccc2oc(/C=C/N(C)C)c([N+](=O)[O-])c2c1`, the IC50 is > 80 µM (inactive).

Consider `C/C(=C/c1oc2ccc(O)cc2c1[N+](=O)[O-])N(C)C`, for which the IC50 was > 80 µM (inactive).

For the molecule `Nc1nc(-c2ccc(Cl)cc2)c(N=Nc2ccc(S(=O)(=O)N3CCOCC3)cc2)s1`, the IC50 is 30.3 µM (inactive).

With `O=C(NNc1c2ccccc2nc2ccccc12)c1cc2ccccc2cc1O`, the IC50 is > 80 µM (inactive).

Turning to `CC1=NN(c2ccccc2)C(=O)/C1=C/C=C/c1ccc(N(C)C)cc1`, the IC50 was > 80 µM (inactive).

For `COc1ccc(Nc2ccccc2N)cc1`, the IC50 is 2.38 µM.
